{"source": "patent US9399145B2", "about": "“Nanoscale neuromodulating platform for retina neuron activation apparatus and method” (The Board of Trustees of the University of Illinois, priority 2005, dated 2016)", "key": {"[1]": {"target": "T1, α1β2γ2 GABAARs (rat α1, rat β2 and human γ2S) (UniProt P18507+P62813+P63138)", "T1 construct": "expressed in transfected cells; host or cells: Xenopus laevis oocytes", "test": "Two-electrode voltage clamp of α1β2γ2 GABAAR-expressing Xenopus oocytes", "format": "cell-based", "description": "Purple and gray bars indicate periods of presentation of UV light (purple) and high-intensity visible light (High-Vis) (gray), respectively. […] These amplitude determination conditions are denoted by numbers beneath the waveform in FIG. 35d.\nIn each of the MPC088 experiments, the cis-dominant form was generated by UV light during static bathing. […] Numbers beneath the waveform in FIG. 2(c) denote amplitude determination conditions for that experiment.\nOocytes expressing α1β2γ2 receptors (rat α1, rat β2 and human γ2S) were prepared and studied by two-electrode voltage-clamp recording^58 (holding potential: −70 mV; amplifier: GeneClamp500B; Axon Instruments, Foster City, Calif.). Unless otherwise indicated, oocytes were superfused with Ringer solution (physiological saline) at a rate of ˜1 mL/min. The experiments of FIGS. 35d-e, 36c-e and 47 involved periods of static bathing, i.e., halted superfusion. The γ2(A79C) subunit was prepared by site-directed mutagenesis. Oocyte electrophysiological experiments were carried out in room light. A UV light-emitting diode (peak wavelength: 365 nm; Hamamatsu Photonics, Japan) and a microscope illuminator (white light; Schott Fostec, Auburn, N.Y.) provided UV and visible stimulating light. As measured at the position of the oocyte, the intensity of the UV light at 365 nm was 220 μW/mm^2. At 440 nm, the nominal strength of the visible (white) light (referred to as high-intensity visible light) was 28 μW/mm^2, and that of the ambient room illumination was 0.045 μW/mm^2. In all experiments, low-intensity visible light from the microscope illuminator (3 μW/mm^2 at 440 nm) was present at all times except those involving high-intensity visible illumination. Electrophysiological data were obtained using Clampex 8.2 (Axon Instruments), analyzed using Clampfit 10.0 (Axon Instruments) and OriginPro7.5 (OriginLab, Northampton, Mass.). All statistical analysis employed a two-sample t-test."}, "[2]": {"target": "T2, α1β2γ2 GABAARs (UniProt P18507+P62813+P63138)", "T2 construct": "expressed in transfected cells; host or cells: Xenopus laevis oocytes", "format": "binding", "conditions": "1 μM competitor added to 10 μM 23 and 3 μM GABA", "description": "Tomlinson and Rosenthal, the linear chain of 22 is further extended by an amide-linked PEG5000 that is terminated by biotin. […] Bright-field images of the (opaque) oocytes illustrate the focus of the oocyte border during fluorescence microscopy."}, "[3]": {"tested_on": "GABAARs of cerebellar PNs", "test": "Test for direct agonist activity on Purkinje neurons (recirculating MPC088, no exogenous GABA)", "format": "cell-based, mouse", "conditions": "30 μM gabazine added to 30 μM MPC088", "protocol": "To test for direct agonist activity of MPC088 on PNs, cerebellar slices were perfused with recirculating 30 μM MPC088 (the maximal MPC088 concentration that could be reliably maintained solubilized in bicarbonate-buffered solution). MPC088 was converted to cis-dominant form by a 2-min exposure to UV light (LED, 365 nm/160 mW, Mouser, Inc., Mansfield, Tex.; LED driver, 700 mA BuckPuck DC Driver, Quadica Developments, Inc., Brantford, Ontario, Canada), before its dilution into the recirculating external solution. The same LED was then used to continuously UV-illuminate the recirculating solution for the duration of the experiment. Whole-cell voltage clamp recordings were obtained from PNs and determined the change in membrane current produced by alternating blue and UV illumination of the slice, as in the FIG. 40 experiments. […] The temporal sequence of illumination differed among the experiments (e.g., only the cell in a received multiple blue/UV exposures), but the data plotted are the amplitudes from the blue to UV transition (in the case of the cell in a, this is the blue/UV transition from the first of the three exposures). Yellow-filled data points indicate results from the experiment in a. Each data point is the average obtained from 4-10 consecutive recordings. […] Error bars represent the SEM (FIG. 42b)."}, "[4]": {"tested_on": "GABAARs of cerebellar PNs", "test": "Whole-cell voltage clamp of cerebellar Purkinje neurons in slices, GABA-evoked currents with UV/blue light", "format": "cell-based, mouse", "conditions": "10 μM GABA plus 300 μM propofol"}, "[5]": {"test": "Hydrophobicity (log P)", "format": "physicochemical"}, "[6]": {"target": "T3, α4β3δ GABAAR (Homo sapiens, UniProt P28472+P48169)", "T3 construct": "expressed in transfected cells; host or cells: Xenopus oocytes", "test": "Two-electrode voltage clamp of α4β3δ GABAAR-expressing oocytes", "format": "cell-based", "conditions": "200 μM propofol and 50 nM GABA", "description": "Propofol is known to modulate GABAA receptors that contain a β subunit. […] Data in each group was obtained from 4 oocytes."}}}
{"smiles": "CN1C(=O)CN=C(c2ccccc2)c2cc(Cl)ccc21", "note": "[diazepam, reference compound]", "values": [{"measurement": "potentiation factor of the 3 μM GABA response", "setting": "[1]", "value": "1.92±0.36"}, {"measurement": "effect on fluorescent border from binding of 23 (competition)", "setting": "[2]", "value": "virtually eliminated"}]}
{"smiles": "COc1ccc(-c2ccc(=N)n(CCCC(=O)O)n2)cc1", "note": "[gabazine, reference compound]", "values": [{"measurement": "effect of antagonist on the MPC088-elicited response", "setting": "[1]; picrotoxin 100 μg, gabazine 30 μg, bicuculline 100 μM (so in the source)", "value": "not sensitive"}, {"measurement": "average current remaining relative to the pre-gabazine current", "setting": "[3]", "value": "11±3", "unit": "%"}]}
{"smiles": "CC(C)c1cccc(C(C)C)c1O", "note": "[propofol, reference compound]", "values": [{"measurement": "light-induced current change", "setting": "[4]", "value": "little or no light-induced current change"}, {"measurement": "logP", "setting": "[5]", "value": "~4"}, {"measurement": "maximum current of direct activation relative to the 100 μM GABA response", "setting": "[1]", "value": "about 40%"}, {"measurement": "response relative to the saturating GABA-alone response", "setting": "[6]", "value": "1.2±0.1", "unit": "fold"}]}
